Test results reported in patent publication US11643416B2, “Substituted 1′,2′-dihydro-3′H-spiro[cyclohexane-1,4′-pyrimido[5′,4′:4,5]pyrrolo[2,1-c][1,2,4]triazin]-3′-ones as cyclin-dependent kinase inhibitors” (G1 Therapeutics, Inc., priority 2020, dated 2023).

The compounds below were run against CDK5 (Homo sapiens (Human), UniProt Q00535) (assay: CDK5 kinase assay (Nanosyn, Caliper microfluidic)). Conditions: ATP at Km; 12-point dose-response.
Assay type: biochemical
Procedure: Selected compounds disclosed herein were tested in kinase assays by Nanosyn (Santa Clara, Calif.) to determine their inhibitory effect on these CDKs. The assays were performed using microfluidic kinase detection technology (Caliper Assay Platform). The compounds were tested in 12-point dose-response format in singlicate at Km for ATP.

Chain of CDK5 (Q00535 whole entry): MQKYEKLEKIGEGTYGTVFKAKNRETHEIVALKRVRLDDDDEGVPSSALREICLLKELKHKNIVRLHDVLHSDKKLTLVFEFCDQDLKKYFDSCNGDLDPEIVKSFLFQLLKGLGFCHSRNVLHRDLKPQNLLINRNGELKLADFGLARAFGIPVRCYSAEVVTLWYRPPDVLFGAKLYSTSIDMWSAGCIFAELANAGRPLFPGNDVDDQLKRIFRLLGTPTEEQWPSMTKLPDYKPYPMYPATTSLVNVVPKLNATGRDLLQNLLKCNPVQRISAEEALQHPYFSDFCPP
Chain of CDK5 (Q15078 whole entry partner): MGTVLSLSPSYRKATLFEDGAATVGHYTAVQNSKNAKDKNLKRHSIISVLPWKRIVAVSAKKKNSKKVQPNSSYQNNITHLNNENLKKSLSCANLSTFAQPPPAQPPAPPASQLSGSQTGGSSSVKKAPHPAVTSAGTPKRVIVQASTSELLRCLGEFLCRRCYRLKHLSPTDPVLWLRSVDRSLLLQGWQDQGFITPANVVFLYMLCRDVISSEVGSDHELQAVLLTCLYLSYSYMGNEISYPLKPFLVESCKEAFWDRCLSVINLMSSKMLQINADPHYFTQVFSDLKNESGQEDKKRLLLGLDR

| SMILES | IC50 |
| --- | --- |
| NS(=O)(=O)c1ccc(Nc2ncc3cc4n(c3n2)C2(CCCCC2)C(=O)N[C@H]4CF)cc1 [Compound 18, (R)-4-((6′-(fluoromethyl)-8′-oxo-7′,8′-dihydro-6′H-spiro[cyclohexane-1,9′-pyrazino[1′,2′:1,5]pyrrolo[2,3-d]pyrimidin]-2′-yl)amino)benzenesulfonamide] | 16 nM |
| NS(=O)(=O)c1ccc(Nc2ncc3cc4n(c3n2)C2(CCCCC2)C(=O)N[C@@H]4CF)cc1 [Compound 23, (S)-4-((6′-(fluoromethyl)-8′-oxo-7′,8′-dihydro-6′H-spiro[cyclohexane-1,9′-pyrazino[1′2′:1,5]pyrrolo[2,3-d]pyrimidin]-2′-yl)amino)benzenesulfonamide] | 12 nM |
| CN1CCN(S(=O)(=O)c2ccc(Nc3ncc4cc5n(c4n3)C3(CCCCC3)C(=O)NN5)cc2)CC1 [Compound 49, 7′-((4-((4-methylpiperazin-1-yl)sulfonyl)phenyl)amino)-1′,2′-dihydro-3′H-spiro[cyclohexane-1,4′-pyrimido[5′,4′:4,5]pyrrolo[2,1-c][1,2,4]triazin]-3′-one] | 105 nM |
| CN1CCN(S(=O)(=O)c2ccc(Nc3ncc4cc5n(c4n3)C3(CCCCC3)C(=O)NC5O)cc2)CC1 (centres unmarked) [Compound 50, 6′-hydroxy-2′-((4-((4-methylpiperazin-1-yl)sulfonyl)phenyl)amino)-6′,7′-dihydro-8′H-spiro[cyclohexane-1,9′-pyrazino[1′,2′:1,5]pyrrolo[2,3-d]pyrimidin]-8′-one] | 71 nM |
| CN1CCN(S(=O)(=O)c2ccc(Nc3ncc4cc5n(c4n3)C3(CCCCC3)CC(=O)N5)cc2)CC1 [Compound 51, 2′-((4-((4-methylpiperazin-1-yl)sulfonyl)phenyl)amino)-6′H-spiro[cyclohexane-1,9′-pyrrolo[1,5-a:2,3-d′]dipyrimidin]-7′(8′H)-one] | 7 nM |
| CN1CCN(C(=O)c2ccc(Nc3ncc4cc5n(c4n3)C3(CCCCC3)C(=O)NN5)cc2)CC1 [Compound 52, 7′-((4-(4-methylpiperazine-1-carbonyl)phenyl)amino)-1′,2′-dihydro-3′H-spiro[cyclohexane-1,4′-pyrimido[5′,4′:4,5]pyrrolo[2,1-c][1,2,4]triazin]-3′-one] | 84 nM |
| CN1CCN(C(=O)c2ccc(Nc3ncc4cc5n(c4n3)C3(CCCCC3)C(=O)NC5O)cc2)CC1 (centres unmarked) [Compound 53, 6′-hydroxy-2′-((4-(4-methylpiperazine-1-carbonyl)phenyl)amino)-6′,7′-dihydro-8′H-spiro[cyclohexane-1,9′-pyrazino[1′,2′:1,5]pyrrolo[2,3-d]pyrimidin]-8′-one] | 4 nM |
| CN1CCN(C(=O)c2ccc(Nc3ncc4cc5n(c4n3)C3(CCCCC3)CC(=O)N5)cc2)CC1 [Compound 54, 2′-((4-(4-methylpiperazine-1-carbonyl)phenyl)amino)-6′H-spiro[cyclohexane-1,9′-pyrrolo[1,5-a:2,3-d′]dipyrimidin]-7′(8′H)-one] | 3 nM |
| O=C1NCC2(CCCCC2)n2c1cc1cnc(Nc3ccc(C(=O)N4CCNCC4)cc3)nc12 [Compound 55, 2′-((4-(piperazine-1-carbonyl)phenyl)amino)-7′,8′-dihydro-6′H-spiro[cyclohexane-1,9′-pyrazino[1′,2′:1,5]pyrrolo[2,3-d]pyrimidin]-6′-one] | 1 nM |
| CC1C(=O)Nc2cc3cnc(Nc4ccc(S(=O)(=O)N5CCN(C)CC5)cc4)nc3n2C12CCCCC2 (centres unmarked) [Compound 59, 8′-methyl-2′-((4-((4-methylpiperazin-1-yl)sulfonyl)phenyl)amino)-6′H-spiro[cyclohexane-1,9′-pyrrolo[1,5-a:2,3-d′]dipyrimidin]-7′(8′H)-one] | 6 nM |
| O=C(c1ccc(Nc2ncc3cc4n(c3n2)C2(CCCCC2)C(=O)NN4)cc1)N1CCNCC1 [Compound 61, 7′-((4-(piperazine-1-carbonyl)phenyl)amino)-1′,2′-dihydro-3′H-spiro[cyclohexane-1,4′-pyrimido[5′,4′:4,5]pyrrolo[2,1-c][1,2,4]triazin]-3′-one] | 72 nM |
| CN(C)C(=O)c1ccc(Nc2ncc3cc4n(c3n2)C2(CCCCC2)C(=O)NN4)cc1 [Compound 62, N,N-dimethyl-4-((3′-oxo-2′,3′-dihydro-1′H-spiro[cyclohexane-1,4′-pyrimido[5′,4′:4,5]pyrrolo[2,1-c][1,2,4]triazin]-7′-yl)amino)benzamide] | 131 nM |
| NC(=O)c1ccc(Nc2ncc3cc4n(c3n2)C2(CCCCC2)C(=O)NN4)cc1 [Compound 63, 4-((3′-oxo-2′,3′-dihydro-1′H-spiro[cyclohexane-1,4′-pyrimido[5′,4′:4,5]pyrrolo[2,1-c][1,2,4]triazin]-7′-yl)amino)benzamide] | 78 nM |
| CNC(=O)c1ccc(Nc2ncc3cc4n(c3n2)C2(CCCCC2)C(=O)NN4)cc1 [Compound 64, N-methyl-4-((3′-oxo-2′,3′-dihydro-1′H-spiro[cyclohexane-1,4′-pyrimido[5′,4′:4,5]pyrrolo[2,1-c][1,2,4]triazin]-7′-yl)amino)benzamide] | 65 nM |
| O=C(c1ccc(Nc2ncc3cc4n(c3n2)C2(CCCCC2)C(=O)NN4)cc1)N1CCOCC1 [Compound 74, 7′-((4-(morpholine-4-carbonyl)phenyl)amino)-1′,2′-dihydro-3′H-spiro[cyclohexane-1,4′-pyrimido[5′,4′:4,5]pyrrolo[2,1-c][1,2,4]triazin]-3′-one] | 92 nM |

More lines, now with the values ahead:

| IC50 | SMILES |
| --- | --- |
| 0.68 nM | NS(=O)(=O)c1ccc(Nc2ncc3cc4n(c3n2)C2(CCCCC2)C(=O)NC4O)cc1 (centres unmarked) [Compound 1, 4-((6′-hydroxy-8′-oxo-7′,8′-dihydro-6′H-spiro[cyclohexane-1,9′-pyrazino[1′,2′:1,5]pyrrolo[2,3-d]pyrimidin]-2'-yl)amino)benzenesulfonamide] |
| 1.4 nM | NS(=O)(=O)c1ccc(Nc2ncc3cc4n(c3n2)C2(CCCCC2)CC(=O)N4)cc1 [Compound 2, 4-((7′-oxo-7′,8′-dihydro-6′H-spiro[cyclohexane-1,9′-pyrrolo[1,5-a:2,3-d′]dipyrimidin]-2′-yl)amino)benzenesulfonamide] |
| 17 nM | NS(=O)(=O)c1ccc(Nc2ncc3cc4n(c3n2)C2(CCCCC2)C(=O)NN4)cc1 [Compound 3, 4-((3′-oxo-2′,3′-dihydro-1′H-spiro[cyclohexane-1,4′-pyrimido[5′,4′:4,5]pyrrolo[2,1-c][1,2,4]triazin]-7′-yl)amino)benzenesulfonamide] |
| 6 nM | NS(=O)(=O)c1ccc(Nc2ncc3cc4n(c3n2)C2(C=NN4)CCCCC2)cc1 [Compound 4, 4-((1′H-spiro[cyclohexane-1,4′-pyrimido[5′,4′:4,5]pyrrolo[2,1-c][1,2,4]triazin]-7′-yl)amino)benzenesulfonamide] |
| 30 nM | CN1N=CC2(CCCCC2)n2c1cc1cnc(Nc3ccc(S(N)(=O)=O)cc3)nc12 [Compound 5, 4-((1′-methyl-1′H-spiro[cyclohexane-1,4′-pyrimido[5′,4′:4,5]pyrrolo[2,1-c][1,2,4]triazin]-7′-yl)amino)benzenesulfonamide] |
| 120 nM | CN1NC(=O)C2(CCCCC2)n2c1cc1cnc(Nc3ccc(S(N)(=O)=O)cc3)nc12 [Compound 12, 4-((1′-methyl-3′-oxo-2′,3′-dihydro-1′H-spiro[cyclohexane-1,4′-pyrimido[5′,4′:4,5]pyrrolo[2,1-c][1,2,4]triazin]-7′-yl)amino)benzenesulfonamide] |
| 50 nM | C[C@@H]1NC(=O)C2(CCCCC2)n2c1cc1cnc(Nc3ccc(S(N)(=O)=O)cc3)nc12 [Compound 19, (S)-4-((6′-methyl-8′-oxo-7′,8′-dihydro-6′H-spiro[cyclohexane-1,9′-pyrazino[1′,2′:1,5]pyrrolo[2,3-d]pyrimidin]-2′-yl)amino)benzenesulfonamide] |
| 2 nM | CC1C(=O)Nc2cc3cnc(Nc4ccc(S(N)(=O)=O)cc4)nc3n2C12CCCCC2 (centres unmarked) [Compound 42, 4-((8′-methyl-7′-oxo-7′,8′-dihydro-6′H-spiro[cyclohexane-1,9′-pyrrolo[1,5-a:2,3-d′]dipyrimidin]-2′-yl)amino)benzenesulfonamide] |
| 15 nM | CC1C(=O)N(C)c2cc3cnc(Nc4ccc(S(N)(=O)=O)cc4)nc3n2C12CCCCC2 (centres unmarked) [Compound 43, 4-((6′,8′-dimethyl-7′-oxo-7′,8′-dihydro-6′H-spiro[cyclohexane-1,9′-pyrrolo[1,5-a:2,3-d′]dipyrimidin]-2′-yl)amino)benzenesulfonamide] |
| 48 nM | CC1=NNc2cc3cnc(Nc4ccc(S(N)(=O)=O)cc4)nc3n2C12CCCCC2 [Compound 45, 4-((3′-methyl-1′H-spiro[cyclohexane-1,4′-pyrimido[5′,4′:4,5]pyrrolo[2,1-c][1,2,4]triazin]-7′-yl)amino)benzenesulfonamide] |
| 11 nM | CC1=NN(C)c2cc3cnc(Nc4ccc(S(N)(=O)=O)cc4)nc3n2C12CCCCC2 [Compound 46, 4-((1′,3′-dimethyl-1′H-spiro[cyclohexane-1,4′-pyrimido[5′,4′:4,5]pyrrolo[2,1-c][1,2,4]triazin]-7′-yl)amino)benzenesulfonamide] |
